Reference: patent publication US10633407B2, “14-membered ketolides and methods of their preparation and use” (President and Fellows of Harvard College, priority 2014, dated 2020)
Values after ≈ are worked out from the molar mass of the structure shown.

Legend:
Experiment in all cases: CLSI broth dilution MIC determination
Type in all cases: cell-based
[1] = tested on: K. pneumoniae KPC-2; conditions: Klebsiella pneumoniae, KPC2, read-out: MIC
[2] = tested on: E. faecalis ATCC 29212; conditions: Enterococcus faecalis, ATCC29212, E. faecalis ATCC 29212 (MP-24); read-out: MIC
[3] = tested on: S. pyogenes ATCC 19615; conditions: Streptococcus pyogenes, ATCC19615, S. pyogenes ATCC 19615 (MP-19); read-out: MIC
[4] = tested on: K. pneumoniae ATCC 10031; conditions: Klebsiella pneumoniae, ATCC10031, K. pneumoniae ATCC 10031 (MP-14); read-out: MIC
[5] = tested on: H. influenzae Erythro >4, Azithro 1; conditions: Haemophilus influenzae; read-out: MIC
Excerpt: MIC data was collected for the novel macrolides that this platform has produced against over 21 unique strains of B. subtilis, E. coli, S. aureus, S. pneumoniae, and H. influenzae, including several multidrug-resistant strains, with a special focus on macrolide resistant mechanisms (vide supra). […] CLSI standard procedures for broth dilution MIC determination were used. […] These genotypes can be constitutive or inducible.

[6] = tested on: E. faecalis Vancomycin-resistant; conditions: Enterococcus faecalis, E. faecalis Vancomycin-resistant (UNT-039); read-out: MIC
[7] = tested on: S. pyogenes Macrolide-resistant; conditions: Streptococcus pyogenes, S. pyogenes Macrolide-resistant (MP-625 UNT-014); read-out: MIC
[8] = tested on: P. aeruginosa ATCC 27853; conditions: Pseudomonas aeruginosa, ATCC27853; P. aeruginosa ATCC 27853 (MP-3); read-out: MIC
[9] = tested on: A. baumannii IMP-4; conditions: Acinetobacter baumannii, IMP4, read-out: MIC
[10] = tested on: A. baumannii imipenem-resistant; conditions: Acinetobacter baumannii, read-out: MIC
[11] = tested on: K. pneumoniae SHV-12; conditions: Klebsiella pneumoniae, SHV12, read-out: MIC
[12] = tested on: A. baumannii ATCC 19606; conditions: Acinetobacter baumannii, ATCC19606; A. baumannii ATCC 19606 (MP-15); read-out: MIC
[13] = tested on: E. coli ATCC 25922; conditions: Escherichia coli, ATCC25922, E. coli ATCC 25922 (MP-4); read-out: MIC
How it was run: (§1)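 Azithromycin and solithromycin were included as macrolide controls in many cases. MICs were determined by CLSI standard broth dilution.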

[14] = tested on: S. aureus USA600, GISA; conditions: Staphylococcus aureus; S. aureus USA600, GISA (MP-619 UNT-120); read-out: MIC
How it was run: as §1

[15] = tested on: K. pneumoniae TEM-10; conditions: Klebsiella pneumoniae, TEM10, read-out: MIC
[16] = tested on: S. pneumoniae mef A genotype (second strain so labelled); conditions: Streptococcus pneumoniae, second strain (MP-627 UNT-039), read-out: MIC
How it was run: as §1

[17] = tested on: E. coli TEM-1; conditions: Escherichia coli, TEM1
How it was run: as §1

[18] = tested on: S. aureus MRSA: USA100; conditions: Staphylococcus aureus; S. aureus MRSA: USA100 (MP-618 UNT-096); read-out: MIC
How it was run: as §1

[19] = tested on: S. pneumoniae erm B + tet(M,O) genotype; conditions: Streptococcus pneumoniae
How it was run: as §1

[20] = tested on: S. aureus MRSA: USA300; conditions: Staphylococcus aureus; S. aureus MRSA: USA300 (MP-549, msr(a)); read-out: MIC
How it was run: as §1

[21] = tested on: H. influenzae ATCC49247; conditions: Haemophilus influenzae, read-out: MIC
How it was run: as §1

[22] = tested on: S. aureus ATCC 29213; conditions: Staphylococcus aureus, ATCC29213; S. aureus ATCC 29213 (MP-12); read-out: MIC
How it was run: as §1

[23] = tested on: E. coli CTX-M-14; conditions: Escherichia coli, CTXM14, read-out: MIC
How it was run: as §1

[24] = tested on: E. coli NDM-1; conditions: Escherichia coli, NDM1, read-out: MIC
How it was run: as §1

[25] = tested on: S. pneumoniae erm B + mef A genotype; conditions: Streptococcus pneumoniae
How it was run: as §1

[26] = tested on: S. pneumoniae mef A genotype (first strain so labelled); conditions: Streptococcus pneumoniae, first strain (MP-626 UNT-038)
How it was run: as §1

[27] = tested on: S. aureus erm A genotype; conditions: Staphylococcus aureus; S. aureus erm A genotype (MP-620 UNT-146); read-out: MIC
How it was run: as §1

[28] = tested on: S. pneumoniae ATCC 49619; conditions: Streptococcus pneumoniae, ATCC49619, S. pneumoniae ATCC 49619 (MP-21); read-out: MIC
How it was run: as §1

[29] = tested on: P. aeruginosa HPA101-1477; conditions: Pseudomonas aeruginosa, HPA1011477, read-out: MIC
[30] = tested on: A. baumannii chromosomal class C; conditions: Acinetobacter baumannii, read-out: MIC

Row | SMILES | MIC [1] [mg/L] | MIC [2] [mg/L] | MIC [3] [mg/L] | MIC [4] [mg/L] | MIC [5] [mg/L] | MIC [6] [mg/L] | MIC [7] [mg/L] | MIC [8] [mg/L] | MIC [9] [mg/L] | MIC [10] [mg/L] | MIC [11] [mg/L] | MIC [12] [mg/L] | MIC [13] [mg/L] | MIC [14] [mg/L] | MIC [15] [mg/L] | MIC [16] [mg/L] | MIC [17] [mg/L] | MIC [18] [mg/L] | MIC [19] [mg/L] | MIC [20] [mg/L] | also measured
1 | CC[C@H]1OC(=O)[C@@H](C)C(=O)[C@H](C)[C@@H](O[C@@H]2OC(C)CC(N(C)C)C2O)[C@](C)(OC)C[C@@H](C)C(=O)[C@H](C)[C@H]2N(C/C=C/Cn3cc(-c4cccc(N)c4)nn3)C(=O)O[C@]12C (stereo partly drawn) [FSM-100432] | > 32 | 0.125 (≈ 0.152 µM) | < 0.0312 | 32 (≈ 38.8 µM) | 8 (≈ 9.7 µM) | > 32 | 0.0625 (≈ 0.0758 µM) | > 32 | > 32 | > 32 | > 32 | > 32 | > 32 | > 32 | > 32 | 0.5 (≈ 0.606 µM) | > 32 | > 32 | < 0.0312 | > 32 | MIC [21]: 8 mg/L (≈ 9.7 µM); MIC [22]: 1 mg/L (≈ 1.21 µM); MIC [23]: > 32 mg/L; MIC [24]: > 32 mg/L; MIC [25]: 2 mg/L (≈ 2.42 µM); MIC [26]: 0.125 mg/L (≈ 0.152 µM); MIC [27]: > 32 mg/L; MIC [28]: < 0.0312 mg/L; MIC [29]: > 32 mg/L; MIC [30]: > 32 mg/L
2 | CC[C@H]1OC(=O)[C@@](C)(F)C(=O)[C@H](C)[C@@H](O[C@@H]2OC(C)CC(N(C)C)C2O)[C@](C)(OC)C[C@@H](C)C(=O)C[C@H]2N(CCCCn3cc(-c4cccc(N)c4)nn3)C(=O)O[C@]12C (stereo partly drawn) [FSM-21598] | > 32 | ≤ 0.0312 | ≤ 0.0312 | 8 (≈ 9.63 µM) | 8 (≈ 9.63 µM) | > 32 | 0.25 (≈ 0.301 µM) | > 32 | > 32 | > 32 | > 32 | > 32 | > 32 | > 32 | > 32 | 0.25 (≈ 0.301 µM) | > 32 | > 32 | ≤ 0.0312 | 32 (≈ 38.5 µM) | MIC [21]: 4 mg/L (≈ 4.81 µM); MIC [22]: 32 mg/L (≈ 38.5 µM); MIC [23]: > 32 mg/L; MIC [24]: > 32 mg/L; MIC [25]: 8 mg/L (≈ 9.63 µM); MIC [26]: ≤ 0.0312 mg/L; MIC [27]: > 32 mg/L; MIC [28]: ≤ 0.0312 mg/L; MIC [29]: > 32 mg/L; MIC [30]: 32 mg/L (≈ 38.5 µM)
